{"source": "paper PMC2880208", "about": "(Cancer research, 2010)", "key": {"[1]": {"system": "MT330 cells", "assay": "Drug sensitivity", "format": "cell-based, human", "conditions": "MT330, gefitinib alone 0.001-50 μM"}, "[2]": {"system": "MT330 cells", "assay": "Intracellular accumulation of topotecan in vitro", "format": "cell-based, human", "conditions": "topotecan 0.1 μM, gefitinib 1 or 10 μM, dose-dependent"}, "[3]": {"conditions": "subcutaneous glioma xenografts, for 8 hours after a single oral dose of 55 mg/kg; cited from earlier work"}, "[4]": {"system": "U87 cells", "assay": "Intracellular accumulation of topotecan in vitro", "format": "cell-based, human", "conditions": "topotecan 0.1 μM, gefitinib 1 or 10 μM, dose-dependent"}, "[5]": {"conditions": "cited from earlier work"}, "[6]": {"system": "U87 cells", "assay": "Drug sensitivity", "format": "cell-based, human", "conditions": "U87, gefitinib alone 0.001-50 μM"}, "[7]": {"conditions": "CD1 nude mice; cited from earlier work"}, "[8]": {"assay": "Intratumor distribution of topotecan", "format": "in vivo, CD1 nude mice", "conditions": "U87, TPT25: 25 μg/h topotecan, n=8"}, "[9]": {"format": "in vivo, CD1 athymic nude mice", "conditions": "CD1 athymic nude, mouse, iv, 4 mg/kg, 4 mg/kg i.v., mean ± SD"}, "[10]": {"assay": "Steady-state"}}, "note": "Read-outs that look alike come from different tables or passages of the source.", "data": [{"smiles": "COc1cc2ncnc(Nc3ccc(F)c(Cl)c3)c2cc1OCCCN1CCOCC1", "note": "[gefitinib]", "values": [{"measurement": "Effect on cell growth", "setting": "[1]", "result": "did not substantially affect growth"}, {"measurement": "Enhancement of topotecan accumulation by gefitinib", "setting": "[2]", "result": "≤ 36", "unit": "%"}, {"measurement": "Intratumor gefitinib concentration", "setting": "[3]", "result": "> 20", "unit": "µM"}, {"measurement": "Enhancement of topotecan accumulation by gefitinib", "setting": "[4]", "result": "≤ 36", "unit": "%"}, {"measurement": "Effect of gefitinib on topotecan lactone plasma clearance", "setting": "[5]", "result": "halves"}, {"measurement": "Effect on cell growth", "setting": "[6]", "result": "did not substantially affect growth"}]}, {"smiles": "CC[C@@]1(O)C(=O)OCc2c1cc1n(c2=O)Cc2cc3c(CN(C)C)c(O)ccc3nc2-1", "note": "[topotecan]", "values": [{"measurement": "Unbound fraction in plasma", "setting": "[7]", "result": 27, "unit": "%"}, {"measurement": "Atot,tumor (total topotecan lactone in tumor homogenate at steady-state)", "setting": "[8]", "result": "47 ± 21", "unit": "ng/mg tumor"}, {"measurement": "Kp", "setting": "[9]; brain extracellular fluid (microdialysate) / plasma, Pbrain (brain ECF-to-plasma AUC ratio of unbound topotecan lactone), non-tumor-bearing CD1 nude mice, n=7", "result": "0.3 ± 0.11"}, {"measurement": "Kp", "setting": "[9]; Pcontralateral (contralateral brain ECF-to-plasma AUC ratio), U87 tumor-bearing mice, n=5", "result": "0.42 ± 0.11"}, {"measurement": "Css,plasma (unbound lactone)", "setting": "[10]; 25 μg/h topotecan infusion, before gefitinib, n=15", "result": "34 ± 8", "unit": "ng/mL"}, {"measurement": "Css,tECF (unbound topotecan lactone in tumor ECF)", "setting": "[10]; U87, 25 μg/h topotecan infusion, after gefitinib 200 mg/kg, n=10", "result": "30 ± 12", "unit": "ng/mL"}, {"measurement": "Css,tECF (unbound topotecan lactone in tumor ECF)", "setting": "[10]; U87, 25 μg/h topotecan infusion, before gefitinib, n=10", "result": "22 ± 10", "unit": "ng/mL"}, {"measurement": "Css,tECF (unbound topotecan lactone in tumor ECF)", "setting": "[10]; U87, TPT12-GEF: 12.5 μg/h topotecan after 200 mg/kg gefitinib, n=3", "result": "6.4 ± 0.8", "unit": "ng/mL"}]}]}
